Experiments:
[1] = target: T1, HiBit-BRG1 fusion protein (Homo sapiens, UniProt P51532); assay: HiBiT-BRG1 cell-based degradation assay (Nano-Glo HiBiT Lytic Detection); conditions: stable HeLa cell line expressing HiBit-BRG1 and LgBit, 24 h incubation; for Dmax: top dose 30 μM, read-out: BRG1 HiBit Degradation Maximum (%); for DC50: read-out: BRMG1 HiBit Degradation IC50
T1 construct: expressed in transfected cells
How it was run: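 Degradation was scored from HiBiT lytic luminescence, scaled between DMSO-treated wells and wells given 2 μM of a standard BRM/BRG1 degrader. Cells were a stable HeLa HiBiT-BRG1/LgBiT line dosed for 24 h, ten concentrations in 3-fold steps from 30 μM, in duplicate.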

HiBit-BRM fusion protein = target: T2, HiBit-BRM fusion protein (Homo sapiens, UniProt P51531); assay: HiBiT-BRM cell-based degradation assay (Nano-Glo HiBiT Lytic Detection); conditions: stable HeLa cell line expressing HiBiT-BRM, 24 h incubation; for BRM HiBit Degradation Maximum (%): top dose 30 μM; for DC50: read-out: BRM HiBit Degradation IC50
T2 construct: expressed in transfected cells
T2 sequence (P51531 whole entry, the tested form may be a part): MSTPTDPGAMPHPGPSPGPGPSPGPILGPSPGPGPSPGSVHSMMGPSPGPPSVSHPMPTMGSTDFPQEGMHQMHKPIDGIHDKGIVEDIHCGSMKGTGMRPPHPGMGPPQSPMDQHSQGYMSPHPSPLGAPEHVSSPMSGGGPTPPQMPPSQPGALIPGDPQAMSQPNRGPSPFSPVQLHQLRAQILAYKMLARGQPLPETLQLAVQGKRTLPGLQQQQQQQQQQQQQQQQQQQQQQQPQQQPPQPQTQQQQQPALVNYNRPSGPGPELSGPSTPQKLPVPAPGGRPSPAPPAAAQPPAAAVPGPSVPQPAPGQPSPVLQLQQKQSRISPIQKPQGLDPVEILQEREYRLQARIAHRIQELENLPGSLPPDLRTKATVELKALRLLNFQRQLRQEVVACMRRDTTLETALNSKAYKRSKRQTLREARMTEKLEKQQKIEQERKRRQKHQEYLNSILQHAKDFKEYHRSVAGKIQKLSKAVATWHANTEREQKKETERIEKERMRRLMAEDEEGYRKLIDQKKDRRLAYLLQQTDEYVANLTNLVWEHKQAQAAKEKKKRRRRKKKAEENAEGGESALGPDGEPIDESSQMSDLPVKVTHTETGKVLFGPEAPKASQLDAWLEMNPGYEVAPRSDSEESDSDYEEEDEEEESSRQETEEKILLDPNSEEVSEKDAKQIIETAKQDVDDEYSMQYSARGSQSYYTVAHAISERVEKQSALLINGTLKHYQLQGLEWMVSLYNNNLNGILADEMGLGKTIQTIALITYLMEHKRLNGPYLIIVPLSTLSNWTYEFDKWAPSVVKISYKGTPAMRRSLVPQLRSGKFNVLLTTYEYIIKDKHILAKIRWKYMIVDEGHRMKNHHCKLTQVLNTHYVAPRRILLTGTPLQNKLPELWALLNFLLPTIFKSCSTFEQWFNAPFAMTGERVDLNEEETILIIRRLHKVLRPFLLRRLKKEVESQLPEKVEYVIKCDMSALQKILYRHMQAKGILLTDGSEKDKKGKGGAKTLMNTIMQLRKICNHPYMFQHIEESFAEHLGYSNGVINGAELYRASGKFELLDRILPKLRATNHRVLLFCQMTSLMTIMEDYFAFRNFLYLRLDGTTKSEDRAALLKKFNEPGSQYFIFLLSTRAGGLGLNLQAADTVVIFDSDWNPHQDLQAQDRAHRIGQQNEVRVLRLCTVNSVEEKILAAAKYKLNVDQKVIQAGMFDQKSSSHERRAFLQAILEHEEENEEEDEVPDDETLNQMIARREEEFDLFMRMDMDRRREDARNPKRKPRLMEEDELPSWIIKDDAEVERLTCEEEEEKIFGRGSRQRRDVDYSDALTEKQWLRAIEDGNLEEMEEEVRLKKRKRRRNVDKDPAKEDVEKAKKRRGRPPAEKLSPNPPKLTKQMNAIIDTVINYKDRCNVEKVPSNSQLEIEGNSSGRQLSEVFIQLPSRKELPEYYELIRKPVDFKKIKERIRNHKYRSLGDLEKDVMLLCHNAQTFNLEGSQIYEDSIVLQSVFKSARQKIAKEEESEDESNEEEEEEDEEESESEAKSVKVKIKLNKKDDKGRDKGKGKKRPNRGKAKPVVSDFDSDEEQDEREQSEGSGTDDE
How it was run: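 Stable HiBiT-BRM HeLa line; 24 h compound exposure, top final 30 μM, 3-fold, 10 pts in duplicate. Lytic HiBiT/LgBiT luminescence readout. % degradation vs DMSO (0%) and 2 μM known BRM/BRG1 degrader (100%).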

T1 sequence (P51532 whole entry, the tested form may be a part): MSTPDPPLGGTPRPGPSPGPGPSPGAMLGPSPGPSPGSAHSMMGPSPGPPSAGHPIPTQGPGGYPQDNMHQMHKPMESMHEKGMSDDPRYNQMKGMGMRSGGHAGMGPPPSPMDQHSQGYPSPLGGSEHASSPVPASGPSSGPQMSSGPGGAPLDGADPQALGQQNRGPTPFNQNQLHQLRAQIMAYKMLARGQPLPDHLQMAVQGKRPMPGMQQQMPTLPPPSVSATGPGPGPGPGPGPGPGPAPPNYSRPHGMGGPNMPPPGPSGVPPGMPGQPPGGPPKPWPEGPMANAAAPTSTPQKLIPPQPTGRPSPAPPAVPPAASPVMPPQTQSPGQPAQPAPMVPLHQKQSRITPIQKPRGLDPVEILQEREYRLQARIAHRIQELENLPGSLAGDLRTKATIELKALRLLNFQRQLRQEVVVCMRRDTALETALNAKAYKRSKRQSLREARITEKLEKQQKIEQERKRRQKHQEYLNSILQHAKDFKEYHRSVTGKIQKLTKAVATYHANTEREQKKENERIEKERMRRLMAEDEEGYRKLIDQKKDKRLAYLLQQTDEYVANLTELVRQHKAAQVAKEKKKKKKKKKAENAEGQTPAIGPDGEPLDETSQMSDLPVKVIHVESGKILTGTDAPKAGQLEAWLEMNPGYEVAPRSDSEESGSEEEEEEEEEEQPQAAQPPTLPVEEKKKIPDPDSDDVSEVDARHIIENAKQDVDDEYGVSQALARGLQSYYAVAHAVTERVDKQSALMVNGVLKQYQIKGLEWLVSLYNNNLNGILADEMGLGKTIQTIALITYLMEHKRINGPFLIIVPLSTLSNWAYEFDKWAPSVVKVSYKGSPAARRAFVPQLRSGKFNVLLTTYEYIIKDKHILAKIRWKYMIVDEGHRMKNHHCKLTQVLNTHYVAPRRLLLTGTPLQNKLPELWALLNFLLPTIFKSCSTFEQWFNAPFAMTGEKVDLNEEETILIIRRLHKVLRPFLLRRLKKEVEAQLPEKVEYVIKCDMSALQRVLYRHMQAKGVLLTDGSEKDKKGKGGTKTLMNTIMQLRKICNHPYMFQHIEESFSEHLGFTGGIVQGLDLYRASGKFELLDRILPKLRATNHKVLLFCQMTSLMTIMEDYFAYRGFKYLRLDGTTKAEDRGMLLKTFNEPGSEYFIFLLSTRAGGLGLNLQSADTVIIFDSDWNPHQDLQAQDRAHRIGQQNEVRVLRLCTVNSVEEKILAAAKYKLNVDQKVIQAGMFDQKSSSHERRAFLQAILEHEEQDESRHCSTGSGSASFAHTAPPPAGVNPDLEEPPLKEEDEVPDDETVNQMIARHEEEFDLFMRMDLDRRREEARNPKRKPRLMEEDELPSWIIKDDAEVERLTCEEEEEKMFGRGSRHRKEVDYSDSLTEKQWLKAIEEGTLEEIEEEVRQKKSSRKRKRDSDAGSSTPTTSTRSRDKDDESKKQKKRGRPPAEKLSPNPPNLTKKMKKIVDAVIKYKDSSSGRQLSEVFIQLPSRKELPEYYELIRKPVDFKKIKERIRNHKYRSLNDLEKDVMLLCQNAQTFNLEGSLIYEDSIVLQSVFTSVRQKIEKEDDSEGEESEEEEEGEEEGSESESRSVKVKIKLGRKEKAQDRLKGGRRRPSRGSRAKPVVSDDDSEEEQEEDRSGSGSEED

SMILES	Dmax [1] [%]	DC50 [1] [nM]	DC50 (HiBit-BRM fusion protein) [nM]	BRM HiBit Degradation Maximum (%) (HiBit-BRM fusion protein)
Cc1ncsc1-c1ccc([C@H](C)NC(=O)[C@@H]2C[C@@H](O)CN2C(=O)[C@@H](c2cc([C@H]3CC[C@H](N4CCC(c5sc6nnc(-c7ccccc7O)cc6c5C)CC4)CC3)no2)C(C)C)cc1 [Compound 38, (2S,4R)-4-hydroxy-1-((R)-2-(3-((1r,4R)-4-(4-(3-(2-hydroxyphenyl)-5-methylthieno[2,3-c]pyridazin-6-yl)piperidin-1-yl)cyclohexyl)isoxazol-5-yl)-3-methylbutanoyl)-N-((S)-1-(4-(4-methylthiazol-5-yl)phenyl)ethyl)pyrrolidine-2-carboxamide]	< 50	≥ 1000	≥ 100	A (“A” indicates maximum degradation ≥ 75%)
Cc1ncsc1-c1ccc([C@H](C)NC(=O)[C@@H]2C[C@@H](O)CN2C(=O)[C@@H](c2cc(OCCN3CCC(c4sc5nnc(-c6ccccc6O)cc5c4C)CC3)no2)C(C)C)cc1 [Compound 8, (2S,4R)-4-hydroxy-1-[(2R)-2-[3-(2-{4-[3-(2-hydroxyphenyl)-5-methylthieno[2,3-c]pyridazin-6-yl]piperidin-1-yl}ethoxy)-1,2-oxazol-5-yl]-3-methylbutanoyl]-N-[(1S)-1-[4-(4-methyl-1,3-thiazol-5-yl)phenyl]ethyl]pyrrolidine-2-carboxamide]	< 50	≥ 1000	< 10	A (“A” indicates maximum degradation ≥ 75%)
Cc1ncsc1-c1ccc([C@H](C)NC(=O)[C@@H]2C[C@@H](O)CN2C(=O)[C@@H](c2cc(O[C@H]3C[C@@H](N4CCC(c5sc6nnc(-c7ccccc7O)cc6c5C)CC4)C3)no2)C(C)C)cc1 [Compound 61, (2S,4R)-4-hydroxy-1-((R)-2-(3-((1s,3S)-3-(4-(3-(2-hydroxyphenyl)-5-methylthieno[2,3-c]pyridazin-6-yl)piperidin-1-yl)cyclobutoxy)isoxazol-5-yl)-3-methylbutanoyl)-N-((S)-1-(4-(4-methylthiazol-5-yl)phenyl)ethyl)pyrrolidine-2-carboxamide]	< 50	≥ 1000	≥ 1000	C (“C” indicates maximum degradation < 50%)
Cc1ncsc1-c1ccc([C@H](C)NC(=O)[C@@H]2C[C@@H](O)CN2C(=O)[C@@H](c2cc(N3CCN(C(=O)[C@H]4CCc5sc6nnc(-c7ccccc7O)cc6c5C4)CC3)no2)C(C)C)cc1 [Compound 52, (2S,4R)-4-hydroxy-1-((R)-2-(3-(4-((S)-3-(2-hydroxyphenyl)-5,6,7,8-tetrahydrobenzo[4,5]thieno[2,3-c]pyridazine-6-carbonyl)piperazin-1-yl)isoxazol-5-yl)-3-methylbutanoyl)-N-((S)-1-(4-(4-methylthiazol-5-yl)phenyl)ethyl)pyrrolidine-2-carboxamide]	< 50	≥ 1000	≥ 1000	C (“C” indicates maximum degradation < 50%)
Cc1ncsc1-c1ccc([C@H](C)NC(=O)[C@@H]2C[C@@H](O)CN2C(=O)[C@@H](c2cc(C3CCN(C(=O)[C@H]4CCc5sc6nnc(-c7ccccc7O)cc6c5C4)CC3)no2)C(C)C)cc1 [Compound 47, (2S,4R)-4-hydroxy-1-((R)-2-(3-(1-((S)-3-(2-hydroxyphenyl)-5,6,7,8-tetrahydrobenzo[4,5]thieno[2,3-c]pyridazine-6-carbonyl)piperidin-4-yl)isoxazol-5-yl)-3-methylbutanoyl)-N-((S)-1-(4-(4-methylthiazol-5-yl)phenyl)ethyl)pyrrolidine-2-carboxamide]	< 50	≥ 1000	≥ 100	A (“A” indicates maximum degradation ≥ 75%)
Cc1ncsc1-c1ccc([C@H](C)NC(=O)[C@@H]2C[C@@H](O)CN2C(=O)[C@@H](c2cc(OCCN3CC4CC3CC4c3cc4cc(-c5ccccc5O)nnc4s3)no2)C(C)C)cc1 (stereo partly drawn) [Compound 67, (2S,4R)-4-hydroxy-1-((2R)-2-(3-(2-(5-(3-(2-hydroxyphenyl)thieno[2,3-c]pyridazin-6-yl)-2-azabicyclo[2.2.1]heptan-2-yl)ethoxy)isoxazol-5-yl)-3-methylbutanoyl)-N-((S)-1-(4-(4-methylthiazol-5-yl)phenyl)ethyl)pyrrolidine-2-carboxamide]	< 50	≥ 1000	≥ 100	A (“A” indicates maximum degradation ≥ 75%)
Cc1ncsc1-c1ccc([C@H](C)NC(=O)[C@@H]2C[C@@H](O)CN2C(=O)[C@@H](c2cc(O[C@H]3C[C@H](N4CCC(c5sc6nnc(-c7ccccc7O)cc6c5C)CC4)C3)no2)C(C)C)cc1 [Compound 59, (2S,4R)-4-hydroxy-1-((R)-2-(3-((1r,3R)-3-(4-(3-(2-hydroxyphenyl)-5-methylthieno[2,3-c]pyridazin-6-yl)piperidin-1-yl)cyclobutoxy)isoxazol-5-yl)-3-methylbutanoyl)-N-((S)-1-(4-(4-methylthiazol-5-yl)phenyl)ethyl)pyrrolidine-2-carboxamide]	< 50	≥ 1000	≥ 1000	A (“A” indicates maximum degradation ≥ 75%)
Cc1ncsc1-c1ccc([C@H](C)NC(=O)[C@@H]2C[C@@H](O)CN2C(=O)[C@@H](c2cc(OCCN3CC(c4csc5nnc(-c6ccccc6O)cc45)C3)no2)C(C)C)cc1 [Compound 102, (2S,4R)-4-hydroxy-1-((R)-2-(3-(2-(3-(3-(2-hydroxyphenyl)thieno[2,3-c]pyridazin-5-yl)azetidin-1-yl)ethoxy)isoxazol-5-yl)-3-methylbutanoyl)-N-((S)-1-(4-(4-methylthiazol-5-yl)phenyl)ethyl)pyrrolidine-2-carboxamide]	< 50	≥ 1000	≥ 1000	C (“C” indicates maximum degradation < 50%)

Second part, led by results:

Dmax [1] [%]	DC50 [1] [nM]	DC50 (HiBit-BRM fusion protein) [nM]	SMILES	BRM HiBit Degradation Maximum (%) (HiBit-BRM fusion protein)
< 50	≥ 1000	≥ 1000	Cc1ncsc1-c1ccc([C@H](C)NC(=O)[C@@H]2C[C@@H](O)CN2C(=O)[C@@H](c2cc(N3C[C@@H]4C[C@H]3CN4C(=O)[C@H]3CCc4sc5nnc(-c6ccccc6O)cc5c4C3)no2)C(C)C)cc1 [Compound 43, (2S,4R)-4-hydroxy-1-((R)-2-(3-((1S,4S)-5-((S)-3-(2-hydroxyphenyl)-5,6,7,8-tetrahydrobenzo[4,5]thieno[2,3-c]pyridazine-6-carbonyl)-2,5-diazabicyclo[2.2.1]heptan-2-yl)isoxazol-5-yl)-3-methylbutanoyl)-N-((S)-1-(4-(4-methylthiazol-5-yl)phenyl)ethyl)pyrrolidine-2-carboxamide]	C (“C” indicates maximum degradation < 50%)
< 50	≥ 1000	≥ 100	Cc1ncsc1-c1ccc([C@H](C)NC(=O)[C@@H]2C[C@@H](O)CN2C(=O)[C@@H](c2cc(N3C[C@H]4C[C@@H]3CN4C(=O)[C@@H]3CCc4sc5nnc(-c6ccccc6O)cc5c4C3)no2)C(C)C)cc1 [Compound 42, (2S,4R)-4-hydroxy-1-((R)-2-(3-((1R,4R)-5-((R)-3-(2-hydroxyphenyl)-5,6,7,8-tetrahydrobenzo[4,5]thieno[2,3-c]pyridazine-6-carbonyl)-2,5-diazabicyclo[2.2.1]heptan-2-yl)isoxazol-5-yl)-3-methylbutanoyl)-N—((S)-1-(4-(4-methylthiazol-5-yl)phenyl)ethyl)pyrrolidine-2-carboxamide]	A (“A” indicates maximum degradation ≥ 75%)
< 50	≥ 1000	≥ 1000	Cc1ncsc1-c1ccc([C@H](C)NC(=O)[C@@H]2C[C@@H](O)CN2C(=O)[C@@H](c2cc(OCCN3CCC(c4c(C)sc5nnc(-c6ccccc6O)cc45)CC3)no2)C(C)C)cc1 [Compound 89, (2S,4R)-4-hydroxy-1-((R)-2-(3-(2-(4-(3-(2-hydroxyphenyl)-6-methylthieno[2,3-c]pyridazin-5-yl)piperidin-1-yl)ethoxy)isoxazol-5-yl)-3-methylbutanoyl)-N-((S)-1-(4-(4-methylthiazol-5-yl)phenyl)ethyl)pyrrolidine-2-carboxamide]	C (“C” indicates maximum degradation < 50%)
< 50	≥ 1000	< 10	Cc1ncsc1-c1ccc([C@H](C)NC(=O)[C@@H]2C[C@@H](O)CN2C(=O)[C@@H](c2cc(N3CCC(N4CC(c5sc6nnc(-c7ccccc7O)cc6c5C)C4)CC3)no2)C(C)C)cc1 [Compound 113, (2S,4R)-4-hydroxy-1-((R)-2-(3-(4-(3-(3-(2-hydroxyphenyl)-5-methylthieno[2,3-c]pyridazin-6-yl)azetidin-1-yl)piperidin-1-yl)isoxazol-5-yl)-3-methylbutanoyl)-N-((S)-1-(4-(4-methylthiazol-5-yl)phenyl)ethyl)pyrrolidine-2-carboxamide]	A (“A” indicates maximum degradation ≥ 75%)
≥ 75	≥ 100	≥ 10	Cc1ncsc1-c1ccc(CNC(=O)[C@@H]2C[C@@H](O)CN2C(=O)[C@@H](NC(=O)[C@H]2CC[C@H](c3cnc(N4CCC(c5sc6nnc(-c7ccccc7O)cc6c5C)CC4)nc3)CC2)C(C)(C)C)cc1 [Compound 85, (2S,4R)-4-hydroxy-1-((S)-2-((1r,4S)-4-(2-(4-(3-(2-hydroxyphenyl)-5-methylthieno[2,3-c]pyridazin-6-yl)piperidin-1-yl)pyrimidin-5-yl)cyclohexane-1-carboxamido)-3,3-dimethylbutanoyl)-N-(4-(4-methylthiazol-5-yl)benzyl)pyrrolidine-2-carboxamide]	A (“A” indicates maximum degradation ≥ 75%)
